According to patent US6362369B1, “Phthalic acid diamide derivatives fluorine-containing aniline compounds as starting material, agricultural and horticultural insecticides, and a method for application of the insecticides” (Nihon Nohyaku Co., Ltd., priority 1997, dated 2002):

Assays:
Type in all cases: in vivo
[1] = system: common cutworm (Spodoptera Litura); assay: Insecticidal effect on common cutworm (Test Example 2); conditions: 500 ppm, 25° C.; for Insecticidal effect (Test Example 2), judged from mortality / Insecticidal effect on common cutworm (Test Example 2), judged grade: cabbage leaf dip; for Insecticidal effect (Test Example 2), judged from mortality: 8 days after inoculation; for Insecticidal effect on common cutworm (Test Example 2), judged grade: second-instar larvae; for Insecticidal effect on common cutworm (Test Example 2), judged grade / Insecticidal effect, Test Example 2: eight days after inoculation; for Insecticidal effect, Test Example 2: cabbage leaf immersed
Method: Insecticidal effect on common cutworm (Spodoptera Litura)
After air-drying, it was placed in a plastic Petri dish with a diameter of 9 cm and inoculated with second-instar larvae of common cutworm, after which the dish was closed and then allowed to stand in a room thermostated at 25° C. Eight days after the inoculation, the dead and alive were counted. The mortality was calculated according to the following equation and the insecticidal effect was judged according to the criterion shown in Test Example 1. The test was carried out with triplicate groups of 10 insects. [formula]

[2] = system: diamondback moth (Plutella xylostella); assay: Insecticidal effect on diamondback moth (Test Example 1); conditions: for Insecticidal effect (Test Example 1), judged from mortality / Insecticidal effect, Test Example 1: diamondback moth; for Insecticidal effect (Test Example 1), judged from mortality: judged by the criterion of Test Example 1; for Insecticidal effect on diamondback moth (Test Example 1), judged grade: mortality judged according to the criterion shown in Test Example 1
Outline: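 Oviposition by adults on Chinese cabbage seedling; immersion; air-dry; 25° C room. Count of hatched larvae at day 6 post-immersion → mortality → effect graded by criterion. Triplicate, 10 insects/group.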

[3] = system: rice leafroller (Cnaphalocrocis medinalis); assay: Insecticidal effect on rice leafroller (Test Example 3); conditions: 500 ppm, 25° C., humidity 70%; for Insecticidal effect on rice leafroller (Test Example 3), judged grade / Insecticidal effect (Test Example 3), judged from mortality: rice lamina dip; for Insecticidal effect on rice leafroller (Test Example 3), judged grade: third-instar larvae; for Insecticidal effect on rice leafroller (Test Example 3), judged grade / Insecticidal effect, Test Example 3: four days after inoculation; for Insecticidal effect, Test Example 3: rice lamina immersed; for Insecticidal effect (Test Example 3), judged from mortality: 4 days after inoculation
Outline: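 Insecticidal effect is judged by a predefined criterion from dead/alive counts four days after infesting air-dried lamina with third-instar larvae, kept on moistened filter paper at 25° C, 70% humidity.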

[4] = second-instar larvae of common cutworm
[5] = common cutworm second-instar larvae
[6] = third-instar larvae of rice leafroller
[7] = judged by the mortality criterion of Test Example 1
[8] = rice leafroller third-instar larvae
[9] = mortality judged by criterion of Test Example 1

## Cc1cc(C(F)(F)C(F)(F)F)ccc1N(C)C(=O)c1cccc(Cl)c1C(=O)NC(C)c1ccccc1 (stereo not drawn) [compound 1554]
[1]; [4]
  Insecticidal effect (Test Example 2), judged from mortality: A (100)
[2]
  Insecticidal effect (Test Example 1), judged from mortality: A (100)

## CC(C)NC(=O)c1c(Cl)cccc1C(=O)Nc1cc2c(cc1F)OC(F)(F)O2 [compound 1594]
[1]; [4]
  Insecticidal effect (Test Example 2), judged from mortality: A (100)
[2]
  Insecticidal effect (Test Example 1), judged from mortality: A (100)

## CC(C)NC(=O)c1c(C(=O)Nc2c(F)c(F)c(F)c(F)c2F)cccc1[N+](=O)[O-] [compound 646]
[1]
  Insecticidal effect on common cutworm (Test Example 2), judged grade: D (79-50)
[2]
  Insecticidal effect on diamondback moth (Test Example 1), judged grade: A (100)

## CC(C)NC(=O)c1ccc(Cl)cc1C(=O)Nc1ccccc1 [compound 181]
[1]; [4]
  Insecticidal effect, Test Example 2: A (100)

## CC(C)NC(=O)c1c(I)cccc1C(=O)Nc1ccc2c(c1Cl)OC(F)(F)C(F)(F)O2 [compound 1732]
[1]; [4]
  Insecticidal effect (Test Example 2), judged from mortality: A (100)

## Cc1ccc(OCCNC(=O)c2c(C(=O)Nc3cc(Cl)ccc3C)cccc2[N+](=O)[O-])c(C)c1 [compound 880]
[1]
  Insecticidal effect on common cutworm (Test Example 2), judged grade: D (79-50)

## CC(C)NC(=O)c1ccccc1C(=O)Nc1ccc(SC(F)(F)F)cc1 [compound 1123]
[1]; [5]
  Insecticidal effect, Test Example 2: A (100)

## CC(C)NC(=O)c1c(C(=O)Nc2cc(C(F)(F)F)cc(C(F)(F)F)c2)cccc1[N+](=O)[O-] [compound 654]
[1]
  Insecticidal effect on common cutworm (Test Example 2), judged grade: D (79-50)

## CSc1cccc(C(=O)NC(C)C)c1C(=O)Nc1cccc(Cl)c1C [compound 785]
[1]
  Insecticidal effect on common cutworm (Test Example 2), judged grade: A (100)

## Cc1cc(C#Cc2ccc(Cl)cc2Cl)ccc1NC(=O)c1cccc(I)c1C(=O)NC(C)C [compound 972]
[1]; [5]
  Insecticidal effect, Test Example 2: A (100)

## Cc1ccc(Cl)cc1NC(=O)c1cccc(C(F)(F)F)c1C(=O)NC(C)C [compound 755]
[3]
  Insecticidal effect on rice leafroller (Test Example 3), judged grade: A (100)
[2]
  Insecticidal effect on diamondback moth (Test Example 1), judged grade: A (100)

## CC(C)NC(=O)c1cccc(Cl)c1C(=O)Nc1ccc(F)cc1Cl [compound 211]
[3]; [6]
  Insecticidal effect, Test Example 3: A (100)
[2]; [7]
  Insecticidal effect, Test Example 1: A (100)

## CC(C)NC(=O)c1c(C(=O)Nc2ccc(C(C)C)cc2)cccc1[N+](=O)[O-] [compound 604]
[3]
  Insecticidal effect on rice leafroller (Test Example 3), judged grade: D (79-50)
[2]
  Insecticidal effect on diamondback moth (Test Example 1), judged grade: A (100)

## COc1ccc(NC(=O)c2cccc(I)c2C(=O)NC(C)C)c(C)c1 [compound 376]
[3]; [6]
  Insecticidal effect, Test Example 3: A (100)
[2]; [7]
  Insecticidal effect, Test Example 1: A (100)

## Cc1cc(C(F)(F)C(F)(F)F)ccc1NC(=O)c1cccc(Cl)c1C(=O)NCCOc1cccc(Cl)c1 [compound 1370]
[3]; [8]
  Insecticidal effect, Test Example 3: A (100)
[2]; [9]
  Insecticidal effect, Test Example 1: A (100)

## CC(C)NC(=O)c1ccccc1C(=O)Nc1ccc2c(c1)OC(F)(F)O2 [compound 1099]
[3]; [8]
  Insecticidal effect, Test Example 3: A (100)
[2]; [9]
  Insecticidal effect, Test Example 1: A (100)

## Cc1cc(SC(C)C)ccc1NC(=O)c1cccc(Cl)c1C(=O)NC(C)C [compound 153]
[3]; [6]
  Insecticidal effect, Test Example 3: D (79-50)
[2]; [7]
  Insecticidal effect, Test Example 1: A (100)

## Cc1cc(OC(F)(F)C(F)(F)c2ccccc2)ccc1NC(=O)c1ccccc1C(=O)NC(C)C [compound 1086]
[3]; [8]
  Insecticidal effect, Test Example 3: A (100)
[2]; [9]
  Insecticidal effect, Test Example 1: A (100)

## CC(C)NC(=O)c1c(C(=O)Nc2ccc([S+]([O-])C(F)(F)Br)cc2)cccc1[N+](=O)[O-] (stereo not drawn) [compound 1109]
[3]; [8]
  Insecticidal effect, Test Example 3: A (100)
[2]; [9]
  Insecticidal effect, Test Example 1: A (100)

## Cc1ccc(Cl)cc1NC(=O)c1cccc(OC(F)F)c1C(=O)NC(C)C [compound 773]
[3]
  Insecticidal effect on rice leafroller (Test Example 3), judged grade: A (100)
[2]
  Insecticidal effect on diamondback moth (Test Example 1), judged grade: A (100)

## Cc1cc(OC(F)(F)F)ccc1NC(=O)c1cccc(I)c1C(=O)NC(C)c1ccccn1 (stereo not drawn) [compound 1775]
[3]; [6]
  Insecticidal effect (Test Example 3), judged from mortality: A (100)
[2]
  Insecticidal effect (Test Example 1), judged from mortality: A (100)

## CCCN(CC)C(=O)c1c(F)cccc1C(=O)Nc1ccc(C(F)(F)C(F)(F)F)cc1Cl [compound 1584]
[3]; [6]
  Insecticidal effect (Test Example 3), judged from mortality: A (100)
[2]
  Insecticidal effect (Test Example 1), judged from mortality: A (100)

## Cc1cc(Br)ccc1NC(=O)c1c(Br)cccc1C(=O)NC(C)C [compound 311]
[3]; [6]
  Insecticidal effect, Test Example 3: D (79-50)
[2]; [7]
  Insecticidal effect, Test Example 1: A (100)

## CC(C)NC(=O)c1cccc(Cl)c1C(=O)Nc1ccc2oc(C(F)(F)F)nc2c1 [compound 255]
[3]; [6]
  Insecticidal effect, Test Example 3: A (100)
[2]; [7]
  Insecticidal effect, Test Example 1: A (100)

## Cc1cc(Oc2ccc(C(F)(F)F)cn2)ccc1NC(=O)c1cccc([N+](=O)[O-])c1C(=O)NC(C)C [compound 728]
[3]
  Insecticidal effect on rice leafroller (Test Example 3), judged grade: A (100)
[2]
  Insecticidal effect on diamondback moth (Test Example 1), judged grade: A (100)

## Cc1cc(C(F)(C(F)(F)F)C(F)(F)F)ccc1NC(=O)c1c(I)cccc1C(=O)NC(C)c1ccccn1 (stereo not drawn) [compound 1774]
[3]; [6]
  Insecticidal effect (Test Example 3), judged from mortality: A (100)
[2]
  Insecticidal effect (Test Example 1), judged from mortality: A (100)

## CCC(C)(C)NC(=O)c1c(F)cccc1C(=O)Nc1ccc(OC(F)F)cc1C [compound 1155]
[3]; [8]
  Insecticidal effect, Test Example 3: A (100)
[2]; [9]
  Insecticidal effect, Test Example 1: A (100)

## CC(C)(C)NC(=O)c1ccccc1C(=O)Nc1ccc2c(c1)OC(F)(F)O2 [compound 1103]
[3]; [8]
  Insecticidal effect, Test Example 3: A (100)
[2]; [9]
  Insecticidal effect, Test Example 1: A (100)

## CCCC(C)NC(=O)c1cccc(I)c1C(=O)Nc1ccc(C(F)(F)C(F)(F)F)cc1C (stereo not drawn) [compound 1010]
[3]; [8]
  Insecticidal effect, Test Example 3: A (100)
[2]; [9]
  Insecticidal effect, Test Example 1: A (100)

## CC(C)(C)NC(=O)c1ccccc1C(=O)Nc1ccccc1 [compound 840]
[3]
  Insecticidal effect on rice leafroller (Test Example 3), judged grade: D (79-50)
[2]
  Insecticidal effect on diamondback moth (Test Example 1), judged grade: A (100)

## Cc1cc(OC(F)F)ccc1NC(=O)c1c(Cl)cccc1C(=O)NC1CC1 [compound 850]
[3]
  Insecticidal effect on rice leafroller (Test Example 3), judged grade: A (100)
[2]
  Insecticidal effect on diamondback moth (Test Example 1), judged grade: A (100)

## CC(C)NC(=O)c1c(Cl)cccc1C(=O)Nc1ccc(OC(F)F)c(F)c1 [compound 137]
[3]; [6]
  Insecticidal effect, Test Example 3: A (100)
[2]; [7]
  Insecticidal effect, Test Example 1: A (100)

## COc1cc(NC(=O)c2cccc(I)c2C(=O)NC(C)C)ccc1OC(F)F [compound 384]
[3]; [6]
  Insecticidal effect, Test Example 3: C (89-80)
[2]; [7]
  Insecticidal effect, Test Example 1: A (100)

## Cc1cc(Cl)ccc1NC(=O)c1cccc(SC(C)C)c1C(=O)NC(C)C [compound 788]
[3]
  Insecticidal effect on rice leafroller (Test Example 3), judged grade: C (89-80)
[2]
  Insecticidal effect on diamondback moth (Test Example 1), judged grade: C (89-80)

## Cc1cc(C(F)(F)C(F)(F)F)ccc1NC(=O)c1cccc(Cl)c1C(=O)NCCc1cccc(Cl)c1 [compound 1358]
[3]; [8]
  Insecticidal effect, Test Example 3: C (89-80)
[2]; [9]
  Insecticidal effect, Test Example 1: A (100)

## CC(C)NC(=O)c1c(I)cccc1C(=O)Nc1ccc(C(C)C)c2scnc12 [compound 1763]
[3]; [6]
  Insecticidal effect (Test Example 3), judged from mortality: A (100)
[2]
  Insecticidal effect (Test Example 1), judged from mortality: A (100)

## CNC(=O)c1cccc(I)c1C(=O)Nc1ccc(C(F)(F)C(F)(F)F)cc1C [compound 1312]
[3]; [8]
  Insecticidal effect, Test Example 3: A (100)
[2]; [9]
  Insecticidal effect, Test Example 1: A (100)

## Cc1cc(Br)ccc1NC(=O)c1c(Cl)cccc1C(=O)NC(C)C [compound 216]
[3]; [6]
  Insecticidal effect, Test Example 3: A (100)
[2]; [7]
  Insecticidal effect, Test Example 1: A (100)
